Measured values published in PMC11350809, “Targeting N-Acetylglucosaminidase in Staphylococcus aureus with Iminosugar Inhibitors” (Antibiotics, 2024).
Like-named read-outs stand apart in the source and are kept apart here.

How the values were obtained:
S. aureus (ATCC 29213) = assay: Minimal inhibitory concentration, broth microdilution; type: cell-based, Staphylococcus aureus; conditions: for MIC: Staphylococcus aureus, ATCC29213; for antibacterial activity against S. aureus ATCC 29213: in words
Procedure: (§1) The minimal inhibitory concentrations (MICs) were determined against the bacterial strains S. aureus (ATCC 29213) and E. coli (ATCC 25922), and the results are presented in Table S6.
(§2) Antimicrobial testing was carried out by the broth microdilution method in a 96-well plate format following the CLSI guidelines and European Committee for Antimicrobial Susceptibility Testing (EUCAST) recommendations. Bacterial suspension of a specific bacterial strain equivalent to 0.5 McFarland turbidity standard was diluted with cation-adjusted Mueller Hinton broth to obtain a final inoculum of 10^5 CFU/mL. Compounds dissolved in 20% DMSO and inoculum were mixed together and incubated for 20 h at 35 °C. After incubation, the minimal inhibitory concentration (MIC) values were determined by visual inspection as the lowest dilution of compounds showing no turbidity. The MICs were determined against S. aureus (ATCC 29213) and E. coli (ATCC 25922) bacterial strains. Tetracycline was used as a positive control on every assay plate, showing MICs of 0.5 µg/mL and 1 µg/mL for S. aureus and E. coli, respectively.

E. coli (ATCC 25922) = assay: Minimal inhibitory concentration, broth microdilution (negative control strain); type: cell-based; conditions: Escherichia coli, ATCC25922
Procedure: as §1, §2

[1] = biological target: α-Glucosidase (from baker's yeast); conditions: cited from earlier work
[2] = biological target: α-Galactosidase (from green coffee beans); conditions: cited from earlier work
[3] = biological target: β-Glucosidase (from almond); conditions: cited from earlier work
naringinase (Nar) = conditions: cited from earlier work
[4] = biological target: β-Galactosidase (from bovine liver); conditions: cited from earlier work
[5] = biological target: β-galactocerebrosidase (GALC); conditions: cited from earlier work
[6] = biological target: human recombinant β-glucocerebrosidase (GBA); conditions: cited from earlier work
[7] = pH 7.2, p-nitrophenyl-a-d-glucopyranoside, footnote **
[8] = pH 6.8, p-nitrophenyl-a-d-galactopyranoside, footnote **
[9] = pH 5.0, p-nitrophenyl-b-d-glucopyranoside, footnote **
[10] = broth microdilution, 20 h at 35 °C, read-out: MIC S. aureus ATCC29213
[11] = broth microdilution, 20 h at 35 °C, read-out: MIC E. coli ATCC25922
[12] = pH 5.2, footnote **, read-out: IC50 GBA pH 5.2
[13] = pH 7.0, footnote **, read-out: IC50 GBA pH 7.0
[14] = pH 7.2, p-nitrophenyl-α-D-glucopyranoside, footnote *
[15] = pH 6.8, p-nitrophenyl-α-D-galactopyranoside, footnote *
[16] = pH 5.0, p-nitrophenyl-β-D-glucopyranoside, footnote *
[17] = pH 5.2, footnote *, read-out: IC50 GBA pH 5.2
[18] = pH 7.0, footnote *, read-out: IC50 GBA pH 7.0
[19] = pH 7.2, p-nitrophenyl-α-D-glucopyranoside, footnote ***
[20] = pH 6.8, p-nitrophenyl-α-D-galactopyranoside, footnote ***
[21] = pH 5.0, p-nitrophenyl-β-D-glucopyranoside, footnote ***
[22] = pH 5.2, footnote ***, read-out: IC50 GBA pH 5.2
[23] = pH 7.0, footnote ***, read-out: IC50 GBA pH 7.0

| Structure (SMILES) | IC50 [1, 7] | IC50 [2, 8] | IC50 [3, 9] | IC50 (naringinase (Nar); footnote **) | MIC (S. aureus (ATCC 29213); [10]) | antibacterial activity against S. aureus ATCC 29213 (S. aureus (ATCC 29213)) | IC50 ([4]; footnote **) | IC50 ([5]; footnote **) | MIC (E. coli (ATCC 25922); [11]) | IC50 [6, 12] | IC50 [6, 13] | IC50 [1, 14] | IC50 [2, 15] | IC50 [3, 16] | IC50 (naringinase (Nar); footnote *) | IC50 ([4]; footnote *) | IC50 ([5]; footnote *) | other results |
| --- | --- | --- | --- | --- | --- | --- | --- | --- | --- | --- | --- | --- | --- | --- | --- | --- | --- | --- |
| CN(C)[C@@H]1C(O)=C(C(N)=O)C(=O)[C@@]2(O)C(O)=C3C(=O)c4c(O)cccc4[C@@](C)(O)[C@H]3C[C@@H]12 [Tetracycline, reference compound] |  |  |  |  |  |  |  |  |  |  |  |  |  |  |  |  |  | MIC (S. aureus (ATCC 29213); positive control on every assay plate, read-out: MIC S. aureus): 0.5 µg/mL; MIC (E. coli (ATCC 25922); positive control on every assay plate, read-out: MIC E. coli): 1 µg/mL |
| CCCCCCCCCCCCNC(=O)N1CC(O)C(O)C(O)C1 (stereo not shown) [Compound 9] | > 100 µM | > 100 µM | > 100 µM | > 100 µM | 250 µM | modest antibacterial activities | 12.9 ± 1.9 µM | > 10 µM | > 500 µM | > 10 µM | > 10 µM |  |  |  |  |  |  |  |
| CCCCCCCCNC(=N)N1CC(O)C(O)C(O)C1 (stereo not shown) [Compound 15] | > 100 µM | > 100 µM | 38.1 ± 1.5 µM | 53 ± 2.2 µM |  |  | < 0.1 µM | > 10 µM |  | 0.99 ± 0.09 µM | 0.24 ± 0.02 µM |  |  |  |  |  |  |  |
| CCCCCCCCCCN=C1OCC2C(O)C(O)C(O)CN12 (stereo not shown) [Compound 13] |  |  |  |  |  |  |  |  |  |  |  | > 100 µM | > 100 µM | 2.1 ± 0.1 µM | 0.01 ± 0.01 µM | 0.1 ± 0.01 µM | > 10 µM | IC50 [6, 17]: 0.02 ± 0.001 µM; IC50 [6, 18]: 0.001 ± 0.001 µM |
| CCCCCCCCCCCCCCNC(=O)N1CC(O)C(O)C(O)C1 (stereo not shown) [Compound 10] | > 100 µM | > 100 µM | > 100 µM | > 100 µM | > 500 µM |  | 34.2 ± 1.9 µM | > 10 µM | > 500 µM | > 10 µM | > 10 µM |  |  |  |  |  |  |  |
| CCCCOC1OCC(CNC(=N)N2CC(O)C(O)C(O)C2)O1 (stereo not shown) [Compound 11] |  |  |  |  | > 500 µM |  |  |  | > 500 µM |  |  |  |  |  |  |  |  | IC50 [1, 19]: > 30 µM; IC50 [2, 20]: > 30 µM; IC50 [3, 21]: 19.2 ± 0.5 µM; IC50 (naringinase (Nar); footnote ***): > 30 µM; IC50 ([4]; footnote ***): > 30 µM; IC50 ([5]; footnote ***): > 30 µM; IC50 [6, 22]: > 30 µM; IC50 [6, 23]: 2.56 ± 0.233 µM |
| CCCCCCCCCCCCN=C1OCC2C(O)C(O)C(O)CN12 (stereo not shown) [Compound 14] |  |  |  |  |  |  |  |  |  |  |  | > 100 µM | > 100 µM | 1.6 ± 0.1 µM | 0.1 ± 0.01 µM | < 0.1 µM | > 10 µM | IC50 [6, 17]: 0.01 ± 0.001 µM; IC50 [6, 18]: 0.001 ± 0.001 µM |
| CCCCCCCCCCCCNC(=N)N1CC(O)C(O)C(O)C1 (stereo not shown) [Compound 4] | > 100 µM | > 100 µM | 10.7 ± 0.3 µM | 37.2 ± 1.7 µM | 62.5 µM | modest antibacterial activities | 0.7 ± 0.1 µM | > 10 µM | 500 µM | 0.04 ± 0.01 µM | 0.02 ± 0.001 µM |  |  |  |  |  |  |  |
| CCCCCCCCCCN(CCCCCCCCCC)C(=O)CNC(=N)N1CC(O)C(O)C(O)C1 (stereo not shown) [Compound 6] | > 100 µM | > 100 µM | > 100 µM | 3.9 ± 0.6 µM | ≤ 4 µM | modest antibacterial activities | 11.6 ± 4 µM | > 10 µM | 500 µM | 0.04 ± 0.01 µM | 0.02 ± 0.001 µM |  |  |  |  |  |  |  |
| CCCCCCCCCCN(CCCCCCCCCC)C(=O)CN=C1OCC2C(O)C(O)C(O)CN12 (stereo not shown) [Compound 2] |  |  |  |  | 125 µM | modest antibacterial activities |  |  | > 500 µM |  |  | > 100 µM | > 100 µM | > 100 µM | 0.5 ± 0.01 µM | 0.9 ± 0.1 µM | > 10 µM | IC50 [6, 17]: 0.01 ± 0.001 µM; IC50 [6, 18]: 0.002 ± 0.001 µM |
| CCCCCCCCOC1OCC(CNC(=N)N2CC(O)C(O)C(O)C2)O1 (stereo not shown) [Compound 17] |  |  |  |  |  |  |  |  |  |  |  |  |  |  |  |  |  | IC50 [1, 19]: > 30 µM; IC50 [2, 20]: > 30 µM; IC50 [3, 21]: 14.6 ± 0.6 µM; IC50 (naringinase (Nar); footnote ***): > 30 µM; IC50 ([4]; footnote ***): > 30 µM; IC50 ([5]; footnote ***): > 30 µM; IC50 [6, 22]: > 30 µM; IC50 [6, 23]: 0.03 ± 0.01 µM |
| CCCCCCCCCCCCCCNC(=N)N1CC(O)C(O)C(O)C1 (stereo not shown) [Compound 5] | > 100 µM | > 100 µM | 2.8 ± 0.1 µM | 33.5 ± 1.7 µM | 15 µM | modest antibacterial activities | 1.6 ± 0.2 µM | > 10 µM | 125 µM | 0.04 ± 0.01 µM | 0.02 ± 0.001 µM |  |  |  |  |  |  |  |
| CCCCCCCCN=C1OCC2C(O)C(O)C(O)CN12 (stereo not shown) [Compound 12] |  |  |  |  |  |  |  |  |  |  |  | > 100 µM | > 100 µM | 5.7 ± 0.4 µM | 0.1 ± 0.01 µM | 0.4 ± 0.01 µM | > 10 µM | IC50 [6, 17]: 0.1 ± 0.01 µM; IC50 [6, 18]: 0.02 ± 0.001 µM |
| CCCCCCCCCN1C[C@H](O)[C@@H](O)[C@H](O)[C@H]1CO [NN-DNJ, reference compound] | > 100 µM | > 100 µM | > 100 µM | 0.2 ± 0.01 µM |  |  | > 100 µM | > 10 µM |  |  |  | > 100 µM | > 100 µM | > 100 µM | 0.1 ± 0.01 µM | > 100 µM | > 10 µM | IC50 [1, 19]: > 30 µM; IC50 [2, 20]: > 30 µM; IC50 [3, 21]: > 30 µM; IC50 (naringinase (Nar); footnote ***): 0.1 ± 0.01 µM; IC50 ([4]; footnote ***): > 30 µM; IC50 ([5]; footnote ***): > 30 µM |
| CCCCCCCCCCN(CCCCCCCCCC)C(=O)CNC(=O)N1CC(O)C(O)C(O)C1 (stereo not shown) [Compound 16] | > 100 µM | > 100 µM | > 100 µM | > 100 µM |  |  | 12.5 ± 2.9 µM | > 10 µM |  | > 10 µM | > 10 µM |  |  |  |  |  |  |  |
| CCCCCCCCNC(=O)N1CC(O)C(O)C(O)C1 (stereo not shown) [Compound 7] | > 100 µM | > 100 µM | > 100 µM | > 100 µM | 125 µM | modest antibacterial activities | 19.6 ± 1.5 µM | > 10 µM | > 500 µM | > 10 µM | > 10 µM |  |  |  |  |  |  |  |
